Read-outs that look alike come from different tables or passages of the source.
Legend:
KAT6A Full length enzyme = KAT6A Full length enzyme (Homo sapiens (Human), UniProt Q92794); test: KAT6A assay (SAMDI-MS acetylation of H3 1-21 peptide); format: biochemical; details: replicate number in parentheses
[1] = target: KAT7+JADE1+EAF6+ING5 4 protein complex (Homo sapiens (Human), UniProt O95251); test: KAT7 JADE1 assay (SAMDI-MS acetylation of H3 1-21 peptide); format: biochemical; details: replicate number in parentheses
[2] = Morrison equation fit, read-out: KAT6A Ki (nM) (replicate number)
[3] = Morrison equation fit, read-out: KAT7 JADE1 Ki (nM) (replicate number)
[4] = read-out: KAT6A Ki (nM) (replicate)
[5] = read-out: KAT7 JADE1 Ki (nM) (replicate)

KAT6A Full length enzyme, sequence (Q92794 other isoform, or with tags, fused parts or gaps): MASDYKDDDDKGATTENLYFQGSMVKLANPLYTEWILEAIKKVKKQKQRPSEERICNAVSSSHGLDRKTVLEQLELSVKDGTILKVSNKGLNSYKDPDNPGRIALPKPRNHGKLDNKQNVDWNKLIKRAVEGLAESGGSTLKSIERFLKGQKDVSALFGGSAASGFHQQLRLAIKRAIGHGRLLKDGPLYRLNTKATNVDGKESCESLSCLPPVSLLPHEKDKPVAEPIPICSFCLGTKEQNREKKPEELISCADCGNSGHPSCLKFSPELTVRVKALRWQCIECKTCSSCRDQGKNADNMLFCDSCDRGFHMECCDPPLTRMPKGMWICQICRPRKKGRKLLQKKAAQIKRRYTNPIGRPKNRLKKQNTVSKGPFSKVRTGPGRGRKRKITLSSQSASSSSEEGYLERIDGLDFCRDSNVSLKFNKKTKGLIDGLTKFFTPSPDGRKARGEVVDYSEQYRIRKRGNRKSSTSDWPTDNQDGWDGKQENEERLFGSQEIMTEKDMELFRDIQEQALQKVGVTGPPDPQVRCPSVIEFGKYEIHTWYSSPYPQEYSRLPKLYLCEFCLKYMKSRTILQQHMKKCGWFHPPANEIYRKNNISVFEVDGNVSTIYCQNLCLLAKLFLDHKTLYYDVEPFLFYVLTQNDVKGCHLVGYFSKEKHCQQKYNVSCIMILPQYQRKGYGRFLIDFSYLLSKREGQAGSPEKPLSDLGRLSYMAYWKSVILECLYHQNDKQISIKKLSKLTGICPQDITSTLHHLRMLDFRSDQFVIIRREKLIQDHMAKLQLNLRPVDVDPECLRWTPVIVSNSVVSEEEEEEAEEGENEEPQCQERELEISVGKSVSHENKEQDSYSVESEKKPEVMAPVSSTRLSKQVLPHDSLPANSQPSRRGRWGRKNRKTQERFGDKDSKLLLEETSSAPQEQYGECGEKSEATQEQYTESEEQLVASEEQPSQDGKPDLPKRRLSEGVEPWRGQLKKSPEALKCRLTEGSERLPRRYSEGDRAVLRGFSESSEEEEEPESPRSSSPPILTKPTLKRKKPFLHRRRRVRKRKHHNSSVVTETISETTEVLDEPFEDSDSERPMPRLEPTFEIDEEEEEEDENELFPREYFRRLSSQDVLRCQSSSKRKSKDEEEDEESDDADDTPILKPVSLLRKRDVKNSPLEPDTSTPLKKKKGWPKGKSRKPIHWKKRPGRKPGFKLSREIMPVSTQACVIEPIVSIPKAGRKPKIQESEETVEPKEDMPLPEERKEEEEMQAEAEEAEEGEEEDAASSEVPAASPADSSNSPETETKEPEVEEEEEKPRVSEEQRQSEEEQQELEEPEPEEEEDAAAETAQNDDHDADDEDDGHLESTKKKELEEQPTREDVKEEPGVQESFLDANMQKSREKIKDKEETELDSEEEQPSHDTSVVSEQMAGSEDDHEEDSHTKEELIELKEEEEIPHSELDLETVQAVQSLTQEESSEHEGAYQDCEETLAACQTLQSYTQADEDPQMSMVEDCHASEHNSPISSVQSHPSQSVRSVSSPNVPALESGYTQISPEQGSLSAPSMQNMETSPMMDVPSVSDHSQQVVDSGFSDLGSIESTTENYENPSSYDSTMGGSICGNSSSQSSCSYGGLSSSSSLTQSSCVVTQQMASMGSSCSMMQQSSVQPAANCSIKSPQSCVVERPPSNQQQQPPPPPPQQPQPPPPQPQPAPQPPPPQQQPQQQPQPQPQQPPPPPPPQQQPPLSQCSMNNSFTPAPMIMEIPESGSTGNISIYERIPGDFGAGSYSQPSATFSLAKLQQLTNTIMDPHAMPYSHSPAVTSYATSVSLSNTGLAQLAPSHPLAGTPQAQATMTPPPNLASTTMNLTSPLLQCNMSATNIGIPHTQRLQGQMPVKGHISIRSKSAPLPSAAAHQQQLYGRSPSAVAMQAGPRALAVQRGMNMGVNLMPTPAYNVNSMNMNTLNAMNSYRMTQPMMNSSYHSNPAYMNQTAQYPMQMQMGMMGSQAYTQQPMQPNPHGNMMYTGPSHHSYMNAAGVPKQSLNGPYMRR

| Structure (SMILES) | Ki (KAT6A Full length enzyme; [2]) [nM] | Ki [1, 3] [nM] | Ki (KAT6A Full length enzyme; [4]) [nM] | Ki [1, 5] [nM] |
| --- | --- | --- | --- | --- |
| COc1cc2c(NS(=O)(=O)c3c(OC)cc(CN4CCC[C@H](F)C4)cc3OC)noc2cc1Nc1cc(C2CC2)n[nH]1 (single isomer, unassigned) [Example 197, N-{6-[(3-cyclopropyl-1H-pyrazol-5-yl)amino]-5-methoxy-1,2-benzoxazol-3-yl}-4-[(3-fluoropiperidin-1-yl)methyl]-2,6-dimethoxybenzene-1-sulfonamide] | 1.3 | 7.3 |  |  |
| COc1cc2c(NS(=O)(=O)c3c(OC)cc(CN4CCC[C@@H](F)C4)cc3OC)noc2cc1Nc1cc(C2CC2)n[nH]1 (single isomer, unassigned) [Example 198, N-{6-[(3-cyclopropyl-1H-pyrazol-5-yl)amino]-5-methoxy-1,2-benzoxazol-3-yl}-4-[(3-fluoropiperidin-1-yl)methyl]-2,6-dimethoxybenzene-1-sulfonamide] | 1.1 | 5.9 |  |  |
| COc1cc2c(NS(=O)(=O)c3c(OC)cc(C(C)N4CCOCC4)cc3OC)noc2cc1Nc1cc(C2CC2)n[nH]1 (single isomer, unassigned) [Example 208, N-{6-[(3-cyclopropyl-1H-pyrazol-5-yl)amino]-5-methoxy-1,2-benzoxazol-3-yl}-2,6-dimethoxy-4-[1-(morpholin-4-yl)ethyl]benzene-1-sulfonamide] | 2.4 | 7.6 |  |  |
| COc1cc2c(NS(=O)(=O)c3c(OC)cc(C(C)N4CC(F)C4)cc3OC)noc2cc1Nc1cc(C2CC2)[nH]n1 (single isomer, unassigned) [Example 210, N-{6-[(5-cyclopropyl-1H-pyrazol-3-yl)amino]-5-methoxy-1,2-benzoxazol-3-yl}-4-[1-(3-fluoroazetidin-1-yl)ethyl]-2,6-dimethoxybenzene-1-sulfonamide] | 1.2 | 6.6 |  |  |
| COc1cc2c(NS(=O)(=O)c3c(OC)cc(C4CN(C)CC(F)(F)C4)cc3OC)noc2cc1Nc1cc(C2CC2)[nH]n1 (single isomer, unassigned) [Example 228, N-{6-[(5-cyclopropyl-1 H-pyrazol-3-yl)amino]-5-methoxy-1,2-benzoxazol-3-yl}-4-(5,5-difluoro-1-methylpiperidin-3-yl)-2,6-dimethoxybenzene-1-sulfonamide] | 0.8 | 6.2 |  |  |
| COc1cc2c(NS(=O)(=O)c3c(OC)cc(C4CN(C)CC(F)(F)C4)cc3OC)noc2cc1Nc1cc(C2CC2)[nH]n1 (single isomer, unassigned) [Example 229, N-{6-[(5-cyclopropyl-1 H-pyrazol-3-yl)amino]-5-methoxy-1,2-benzoxazol-3-yl}-4-(5,5-difluoro-1-methylpiperidin-3-yl)-2,6-dimethoxybenzene-1-sulfonamide] | 1.7 | 6.4 |  |  |
| CCc1cc(Nc2cc3onc(NS(=O)(=O)c4c(OC)cc(C5COCCO5)cc4OC)c3cc2OC)[nH]n1 (single isomer, unassigned) [Example 239, 4-(1,4-dioxan-2-yl)-N-{6-[(3-ethyl-1H-pyrazol-5-yl)amino]-5-methoxy-1,2-benzoxazol-3-yl}-2,6-dimethoxybenzene-1-sulfonamide] | 2.1 | 14.1 |  |  |
| CCc1cc(Nc2cc3onc(NS(=O)(=O)c4c(OC)cc(C5COCCO5)cc4OC)c3cc2OC)[nH]n1 (single isomer, unassigned) [Example 240, 4-(1,4-dioxan-2-yl)-N-{6-[(3-ethyl-1H-pyrazol-5-yl)amino]-5-methoxy-1,2-benzoxazol-3-yl}-2,6-dimethoxybenzene-1-sulfonamide] | 1.2 | 7.5 |  |  |
| COc1cc2c(NS(=O)(=O)c3c(OC)cc(-c4ccn(C)n4)cc3OC)noc2cc1Nc1cc(C2CC2C)n[nH]1 (single isomer, unassigned) [Example 241, 2,6-dimethoxy-N-(5-methoxy-6-{[3-(2-methylcyclopropyl)-1H-pyrazol-5-yl]amino}-1,2-benzoxazol-3-yl)-4-(1-methyl-1H-pyrazol-3-yl)benzene-1-sulfonamide] | 2.6 | 75.3 |  |  |
| COc1cc2c(NS(=O)(=O)c3c(OC)cc(N4C(=O)CCC4C)cc3OC)noc2cc1Nc1cc(C2CC2)n[nH]1 (single isomer, unassigned) [Example 244, N-{6-[(3-cyclopropyl-1 H-pyrazol-5-yl)amino]-5-methoxy-1,2-benzoxazol-3-yl}-2,6-dimethoxy-4-(2-methyl-5-oxopyrrolidin-1-yl)benzene-1-sulfonamide] | 0.2 | 1.3 |  |  |
| COc1cc2c(NS(=O)(=O)c3c(OC)cc(N4C(=O)CCC4C)cc3OC)noc2cc1Nc1cc(C2CC2)n[nH]1 (single isomer, unassigned) [Example 245, N-{6-[(3-cyclopropyl-1 H-pyrazol-5-yl)amino]-5-methoxy-1,2-benzoxazol-3-yl}-2,6-dimethoxy-4-(2-methyl-5-oxopyrrolidin-1-yl)benzene-1-sulfonamide] | 0.7 | 3.6 |  |  |
| COc1cc2c(NS(=O)(=O)c3c(OC)cc(C4CCOC4)cc3OC)noc2cc1Nc1cc(C2CC2)n[nH]1 (single isomer, unassigned) [Example 266, N-{6-[(3-cyclopropyl-1H-pyrazol-5-yl)amino]-5-methoxy-1,2-benzoxazol-3-yl}-2,6-dimethoxy-4-(oxolan-3-yl)benzene-1-sulfonamide] |  |  | 1.6 | 13.6 |
| COc1cc2c(NS(=O)(=O)c3c(OC)cc(C4CCOC4)cc3OC)noc2cc1Nc1cc(C2CC2)n[nH]1 (single isomer, unassigned) [Example 267, N-{6-[(3-cyclopropyl-1H-pyrazol-5-yl)amino]-5-methoxy-1,2-benzoxazol-3-yl}-2,6-dimethoxy-4-(oxolan-3-yl)benzene-1-sulfonamide] |  |  | 1.3 | 9.3 |
| COc1cc2c(NS(=O)(=O)c3c(OC)cc(C4CCCOC4)cc3OC)noc2cc1Nc1cc(C2CC2)n[nH]1 (single isomer, unassigned) [Example 268, N-{6-[(3-cyclopropyl-1 H-pyrazol-5-yl)amino]-5-methoxy-1,2-benzoxazol-3-yl}-2,6-dimethoxy-4-(oxan-3-yl)benzene-1-sulfonamide] |  |  | 1.2 | 8.8 |
| COc1cc2c(NS(=O)(=O)c3c(OC)cc(C4CCCOC4)cc3OC)noc2cc1Nc1cc(C2CC2)n[nH]1 (single isomer, unassigned) [Example 269, N-{6-[(3-cyclopropyl-1 H-pyrazol-5-yl)amino]-5-methoxy-1,2-benzoxazol-3-yl}-2,6-dimethoxy-4-(oxan-3-yl)benzene-1-sulfonamide] |  |  | 0.8 | 6.1 |
| COCC(OC)c1cc(OC)c(S(=O)(=O)Nc2noc3cc(Nc4cc(C5CC5)[nH]n4)c(OC)cc23)c(OC)c1 (single isomer, unassigned) [Example 274, N-{6-[(5-cyclopropyl-1 H-pyrazol-3-yl)amino]-5-methoxy-1,2-benzoxazol-3-yl}-4-(1,2-dimethoxyethyl)-2,6-dimethoxybenzene-1-sulfonamide] |  |  | 2.8 | 6.9 |
| COCC(OC)c1cc(OC)c(S(=O)(=O)Nc2noc3cc(Nc4cc(C5CC5)[nH]n4)c(OC)cc23)c(OC)c1 (single isomer, unassigned) [Example 275, N-{6-[(5-cyclopropyl-1H-pyrazol-3-yl)amino]-5-methoxy-1,2-benzoxazol-3-yl}-4-(1,2-dimethoxyethyl)-2,6-dimethoxybenzene-1-sulfonamide] |  |  | 1.1 | 9.7 |
| COc1cccc(OC)c1S(=O)(=O)Nc1noc2cc(NC3COC3)cc(OC)c12 [Example 11, 2,6-dimethoxy-N-{4-methoxy-6-[(oxetan-3-yl)amino]-1,2-benzoxazol-3-yl}benzene-1-sulfonamide] | 31.1 | > 2340 |  |  |
| COc1cccc(OC)c1S(=O)(=O)Nc1noc2cc(NC3CCCC3)cc(OC)c12 [Example 12, N-[6-(cyclopentylamino)-4-methoxy-1,2-benzoxazol-3-yl]-2,6-dimethoxybenzene-1-sulfonamide] | 25.6 | > 2340 |  |  |
| COc1cccc(OC)c1S(=O)(=O)Nc1noc2cc(N[C@@H]3CCOC3)cc(OC)c12 [Example 13, 2,6-dimethoxy-N-(4-methoxy-6-{[(3R)-oxolan-3-yl]amino}-1,2-benzoxazol-3-yl)benzene-1-sulfonamide] | 25.5 | > 2340 |  |  |
| COc1cccc(OC)c1S(=O)(=O)Nc1noc2cc(Nc3ncco3)cc(OC)c12 [Example 17, 2,6-dimethoxy-N-{4-methoxy-6-[(1,3-oxazol-2-yl)amino]-1,2-benzoxazol-3-yl}benzene-1-sulfonamide] | 1.9 | 1230 |  |  |
| COc1cc2c(NS(=O)(=O)c3ccccc3)noc2cc1Nc1ccn(C)n1 [Example 21, N-{5-methoxy-6-[(1-methyl-1H-pyrazol-3-yl)amino]-1,2-benzoxazol-3-yl}benzenesulfonamide] | 7.9 | 625 |  |  |
| COc1cc2c(NS(=O)(=O)c3c(OC)cccc3OC)noc2cc1Nc1noc(C)n1 [Example 37, 2,6-dimethoxy-N-{5-methoxy-6-[(5-methyl-1,2,4-oxadiazol-3-yl)amino]-1,2-benzoxazol-3-yl}benzene-1-sulfonamide] | 15.9 | > 2340 |  |  |
| COc1cc2c(NS(=O)(=O)c3c(OC)cccc3OC)noc2cc1Nc1cc(C)nn1C [Example 38, N-{6-[(1,3-dimethyl-1H-pyrazol-5-yl)amino]-5-methoxy-1,2-benzoxazol-3-yl}-2,6-dimethoxybenzene-1-sulfonamide] | 60.4 | > 12500 |  |  |
| CCc1nc(Nc2cc3onc(NS(=O)(=O)c4c(OC)cccc4OC)c3cc2OC)no1 [Example 43, N-{6-[(5-ethyl-1,2,4-oxadiazol-3-yl)amino]-5-methoxy-1,2-benzoxazol-3-yl}-2,6-dimethoxybenzene-1-sulfonamide] | 55.5 | > 2340 |  |  |
